{"source": "patent US20260345649A1", "about": "“PHARMACEUTICAL COMPOSITION FOR DESTRUCTION OF TUMOR BLOOD VESSELS” (SAMSUNG MEDICAL FOUNDATION, priority 2022, published 2026)", "key": {"VEGF": {"system": "VEGF", "assay": "VEGF immunohistochemical staining of gastric tumor tissue after local injection of 5-FU in nude mice", "type": "in vivo", "experimental": "To observe changes in vascular tissue within gastric tumor masses after local injection of 5-FU, immunohistochemical staining for CD31 and VEGF was performed.\nFor the control group, gastric tumor tissue was implanted in the dorsal region of nude mice, and when the tumor reached a size of 1 cm×1 cm, it was excised and used. For the 5-FU injection group, 5 mg of 5-FU was injected at the base of the tumor when the implanted tumor reached a size of 1 cm×1 cm. […] The immunohistochemical staining method was as follows.\nTo reduce endogenous peroxidase activity present in blood cells within the tissue, the slides were treated at room temperature with 3% H2O2 in methanol for 15 minutes. […] The slides were washed twice with TBST (Tris-buffered saline with 0.1% Tween® 20 Detergent) for 3 minutes each, followed by incubation at room temperature for 15 minutes with Detection Kit Reagent 1 (HRP Polymer-anti-mouse/rabbit IgG). […] For counterstaining, Harris hematoxylin was applied.\nFor result analysis, the proportion of the area stained for CD31-positive blood vessels and VEGF-positive cancer cells relative to the total tissue area was calculated, and a comparison was made between the control group and the 5-FU locally injected group."}, "[1]": {"system": "subcutaneous muscle layer", "assay": "Pathological changes in the subcutaneous muscle layer after subcutaneous injection of 5-FU (H&E staining)", "type": "in vivo, nude mice", "parameters": "key to pathological change score (degeneration, necrosis, inflammation, fibrosis): 0: absent; 1: mild; 2: moderate; 3: severe", "conditions": "5 mg pH 8.4 5-FU, after 24 hours", "experimental": "To observe pathological changes in the surrounding tissue after injecting 5 mg of pH 8.4 5-FU near the tumor, the drug was locally administered to nude mice. After 24 hours, tissues, including muscle layers, were collected and subjected to H&E staining to examine degeneration, necrosis, inflammation, and fibrosis in the muscle layer. The extent of each pathological change was scored as follows: 0=absent, 1=mild, 2=moderate, 3=severe, and the results are shown in FIG. 10A and FIG. 10b. FIG. 10A presents observations at 40× magnification, while FIG. 10b presents observations at 100× magnification."}, "patients": {"system": "patients", "conditions": "cited from earlier work"}}, "data": [{"smiles": "O=c1[nH]cc(F)c(=O)[nH]1", "note": "[5-FU, 5-fluorouracil]", "values": [{"measurement": "Immuno-positive area (%)", "setting": "VEGF; VEGF, proportion of total tissue area, 5 mg 5-FU, one week after injection, control group 0.38", "result": 0.10, "unit": "%"}, {"measurement": "VEGF secretion levels", "setting": "VEGF; compared to control group", "result": "decreased"}, {"measurement": "VEGF stained area", "setting": "VEGF; compared to control group, FIG. 7", "result": "appeared smaller"}, {"measurement": "pathological change score (degeneration, necrosis, inflammation, fibrosis)", "setting": "[1]", "result": 0}, {"measurement": "pathological changes in the subcutaneous muscle layer at the injection site", "setting": "[1]", "result": "no pathological changes were observed"}, {"measurement": "myelosuppression and gastrointestinal toxicity", "setting": "patients; due to phosphorylation in the gastrointestinal tract, damage to normal cells", "result": "frequent myelosuppression and gastrointestinal toxicity"}, {"measurement": "adverse effects on intravenous administration", "setting": "patients; intravenous", "result": "associated with adverse effects such as thrombosis"}, {"measurement": "incidence of severe and potentially life-threatening cardiotoxicity", "setting": "patients; reported cases", "result": "1.5% to 18"}]}]}
